# How the values were obtained:
# K2P4.1(TRAAK) = target: T1, K2P4.1(TRAAK) (Mus musculus, UniProt O88454); assay: TEVC of K2P4.1(TRAAK) in Xenopus oocytes; format: cell-based; settings: I/I0 at 0 mV
# T1 construct: expressed in transfected cells; host or cells: Xenopus laevis oocytes injected with mRNA made from pGEMHE/pMO
# T1 sequence (O88454 1-398): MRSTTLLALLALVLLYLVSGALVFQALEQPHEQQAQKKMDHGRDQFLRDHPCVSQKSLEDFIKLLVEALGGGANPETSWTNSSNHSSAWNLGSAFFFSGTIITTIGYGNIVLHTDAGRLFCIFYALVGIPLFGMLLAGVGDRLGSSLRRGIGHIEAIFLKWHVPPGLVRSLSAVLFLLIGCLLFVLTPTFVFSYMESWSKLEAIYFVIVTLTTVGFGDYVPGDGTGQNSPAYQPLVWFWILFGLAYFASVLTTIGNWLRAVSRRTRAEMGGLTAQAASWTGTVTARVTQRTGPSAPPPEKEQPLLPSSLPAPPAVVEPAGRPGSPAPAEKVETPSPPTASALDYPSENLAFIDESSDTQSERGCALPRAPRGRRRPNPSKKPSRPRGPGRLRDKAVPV
# Text: (§1) Constructs for murine K2P channels, including K2P2.1(TREK-1) (Gene ID 16526), K2P10.1(TREK-2) (Gene ID 72258), K2P4.1(TRAAK) (Gene ID 16528), K2P5.1(TASK-2) (Gene ID 16529), K2P3.1(TASK-1) (Gene ID 16527), K2P9.1(TASK-3) (Gene ID 223604), and K2P18.1(TRESK) (Gene ID 332396) in pGEMHE/pMO, were used for Xenopus oocyte experiments as previously described.[10],[26] Murine K2P2.1(TREK-1) (Gene ID 16526) was expressed in HEK-293 cells using a pIRES-EGFP construct as previously described.[26] Murine K2P13.1(THIK-1) (Gene ID 217826) and K2P1.1(TWIK-1) (Gene ID 16525) were cloned into pGEMHE/pMO for use in Xenopus oocytes. Chimeras were designed using EMBOSS Needle pairwise sequence alignment tool[58] to match homologous helices in K2P2.1(TREK-1) and K2P4.1(TRAAK) and were assembled using the Gibson assembly method.[59] Chimera boundaries are Thr152 (TREK-1/AAK M2-C), Trp199 (TREK-1/AAK M3-C), Y272 (TREK-1/AAK M4-C), Thr114 (TRAAK/EK-1 M2-C), Trp161 (TRAAK/EK-1 M3-C), and Tyr234 K2P4.1(TRAAK). All sequences were verified using DNA sequencing.
# (§2) Xenopus laevis oocytes were harvested in accordance with UCSF IACUC protocol AN129690 and digested in calcium-free ND-96 (96 mM NaCl, 2 mM KCl, 3.8 mM MgCl2) immediately following harvest, as previously described.[6],[10] Digested oocytes were maintained in standard ND96 (96 mM NaCl, 2 mM KCl, 1.8 mM CaCl2, 2 mM MgCl2) with antibiotics (100 units mL^–1 penicillin, 100 μg mL^–1 streptomycin, 50 μg mL^–1 gentimycin). Defolliculated stage V–VI oocytes were injected with 0.2–6.0 ng of mRNA in 50 nL, and currents were recorded 24–48 h after injection. mRNA was synthesized from plasmid DNA using mMessage mMachine Kit (T7 promoter, Ambion, Life Technologies) and purified using RNEasy Kit (Qiagen). Injected oocytes were impaled with two standard microelectrodes (0.2–1.0 MΩ) filled with 3 M KCl and subjected to constant perfusion of standard ND96 during recording. Currents were amplified using the GeneClamp 500B (MDS Analytical Technologies) amplifier controlled by the pClamp software (Molecular Devices). Data were digitized at 1 kHz using Digidata 1332A (MDS Analytical Technologies). For all experiments with small molecules, basal currents were evoked using 1 s long ramps from −150 to +50 mV under constant perfusion of ND96. Once stabilized basal currents were recorded, compounds were perfused at various concentrations in standard ND96 and currents were allowed to increase to stabilization before recording final current. Fold activation upon compound application is expressed as I/I0 (0 mV), derived from the current at 0 mV in the presence of compound divided by the basal current at 0 mV in standard ND96 without compound. Data were analyzed and plotted using Graphpad Prism Version 5 (GraphPad Software, San Diego California USA, www.graphpad.com). […] In the case of BL-1249-acid EC50 estimation, upper bound of I/I0 was set to 20 to account for the strong stimulation of BL-1249-acid.
# K2P2.1(TREK-1) = target: T2, K2P2.1(TREK-1) (Mus musculus, UniProt P97438); assay: TEVC of K2P2.1(TREK-1) in Xenopus oocytes; format: cell-based; parameters: expressed in transfected cells; host or cells: Xenopus laevis oocytes injected with mRNA made from pGEMHE/pMO; settings: for effect on K2P2.1(TREK-1) current (in words): dose-response
# T2 sequence (P97438 1-411 isoform P97438-2): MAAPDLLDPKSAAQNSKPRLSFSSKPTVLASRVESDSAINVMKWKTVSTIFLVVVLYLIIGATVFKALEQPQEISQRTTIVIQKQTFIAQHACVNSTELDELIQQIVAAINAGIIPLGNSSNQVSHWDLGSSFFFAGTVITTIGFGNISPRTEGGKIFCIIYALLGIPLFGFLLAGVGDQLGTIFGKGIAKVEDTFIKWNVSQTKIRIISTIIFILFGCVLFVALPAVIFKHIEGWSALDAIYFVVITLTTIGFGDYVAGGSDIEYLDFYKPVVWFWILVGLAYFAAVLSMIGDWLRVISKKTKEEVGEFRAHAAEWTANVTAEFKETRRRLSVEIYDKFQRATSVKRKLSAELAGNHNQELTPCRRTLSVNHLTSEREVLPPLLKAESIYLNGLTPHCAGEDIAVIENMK
# Text: as §1, §2
# TREK-1/AAK M2-C = TREK-1/AAK M2-C (Mus musculus, UniProt O88454+P97438); assay: TEVC of chimera TREK-1/AAK M2-C; format: cell-based; settings: Xenopus oocytes
# TRAAK/EK-1 M2-C = target: T3, TRAAK/EK-1 M2-C (Mus musculus, UniProt O88454+P97438, A151S/D143N/F160Y/H141A/P165L/Q138H/R166H/S147A/S164V/V139S/V154I); assay: TEVC of chimera TRAAK/EK-1 M2-C; format: cell-based; settings: Xenopus oocytes
# T3 construct: Thr114 (TRAAK/EK-1 M2-C); expressed in transfected cells; host or cells: Xenopus laevis oocytes, mRNA injected; chimera built by Gibson assembly
# TREK-1/AAK M3-C = target: T4, TREK-1/AAK M3-C (Mus musculus, UniProt O88454+P97438); assay: TEVC of chimera TREK-1/AAK M3-C; format: cell-based; settings: Xenopus oocytes
# T4 construct: Trp199 (TREK-1/AAK M3-C); expressed in transfected cells; host or cells: Xenopus laevis oocytes, mRNA injected; chimera built by Gibson assembly
# T4 sequence (P97438+O88454 with tags, fused parts or gaps P97438:N200H/P97438:S202P/P97438:Q203P/P97438:T204G/P97438:K205L/P97438:I206V/P97438:I208S/P97438:I209L/P97438:T211A/P97438:I212V/P97438:I213L/P97438:I215L/P97438:F217I/P97438:V220L/P97438:A224L/P97438:L225T/P97438:A227T/P97438:V228F/P97438:I229V/P97438:K231S/P97438:H232Y/P97438:I233M/P97438:G235S/P97438:A238K/P97438:D240E/P97438:V246I/P97438:I247V/P97438:I252V/P97438:A259P/P97438:G261D/P97438:S262G/P97438:D263T/P97438:I264G/P97438:E265Q/P97438:Y266N/P97438:L267S/P97438:D268P/P97438:F269A/P97438:K271Q/P97438:V273L/P97438:V280F/P97438:A287S/P97438:S290T/P97438:M291T/P97438:D294N): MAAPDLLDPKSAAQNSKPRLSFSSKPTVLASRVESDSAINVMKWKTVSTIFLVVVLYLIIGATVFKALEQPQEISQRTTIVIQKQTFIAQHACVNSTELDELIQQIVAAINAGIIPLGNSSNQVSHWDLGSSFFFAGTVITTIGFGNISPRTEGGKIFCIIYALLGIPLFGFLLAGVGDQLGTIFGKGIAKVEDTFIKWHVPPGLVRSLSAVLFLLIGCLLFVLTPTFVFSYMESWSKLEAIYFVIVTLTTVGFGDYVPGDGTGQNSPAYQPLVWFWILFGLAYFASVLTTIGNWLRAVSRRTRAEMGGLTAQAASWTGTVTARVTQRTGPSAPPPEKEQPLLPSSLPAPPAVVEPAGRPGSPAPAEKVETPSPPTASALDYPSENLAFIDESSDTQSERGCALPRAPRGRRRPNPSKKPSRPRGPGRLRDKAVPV
# TRAAK/EK-1 M4-C = target: T5, TRAAK/EK-1 M4-C (Mus musculus, UniProt O88454+P97438, F242V/L235V/N256D/S249A/T252S/T253M); assay: TEVC of chimera TRAAK/EK-1 M4-C; format: cell-based; settings: Xenopus oocytes
# T5 construct: and Tyr234 K2P4.1(TRAAK); expressed in transfected cells; host or cells: Xenopus laevis oocytes, mRNA injected; chimera built by Gibson assembly
# TREK-1/AAK M4-C = target: T6, TREK-1/AAK M4-C (Mus musculus, UniProt O88454+P97438); assay: TEVC of chimera TREK-1/AAK M4-C; format: cell-based; settings: Xenopus oocytes
# T6 construct: Y272 (TREK-1/AAK M4-C); expressed in transfected cells; host or cells: Xenopus laevis oocytes, mRNA injected; chimera built by Gibson assembly
# T6 sequence (P97438+O88454 with tags, fused parts or gaps P97438:V273L/P97438:V280F/P97438:A287S/P97438:S290T/P97438:M291T/P97438:D294N): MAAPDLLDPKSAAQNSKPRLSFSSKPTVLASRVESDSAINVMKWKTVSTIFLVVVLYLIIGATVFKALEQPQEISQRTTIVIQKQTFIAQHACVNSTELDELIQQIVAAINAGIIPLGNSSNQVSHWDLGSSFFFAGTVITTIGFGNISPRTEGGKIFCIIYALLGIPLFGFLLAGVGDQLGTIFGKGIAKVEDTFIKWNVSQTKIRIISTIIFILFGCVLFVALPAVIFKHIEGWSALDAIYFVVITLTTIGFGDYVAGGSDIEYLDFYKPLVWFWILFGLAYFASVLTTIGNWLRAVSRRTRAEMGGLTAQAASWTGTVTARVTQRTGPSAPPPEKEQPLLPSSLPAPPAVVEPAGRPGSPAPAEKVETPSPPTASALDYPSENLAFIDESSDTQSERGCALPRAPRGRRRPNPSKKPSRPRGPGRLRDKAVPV
# TRAAK/EK-1 M3-C = target: T7, TRAAK/EK-1 M3-C (Mus musculus, UniProt O88454+P97438, A173T/A231F/D223G/E202D/F190V/F242V/G166T/G224S/G226I/H162N/I179F/I208V/K200A/L167K/L171I/L175I/L177I/L182V/L186A/L235V/M195I/N228Y/N256D/P164S/P165Q/P221A/P230D/Q227E/Q233K/S170I/S193K/S197G/S229L/S249A/T187L/T189A/T225D/T252S/T253M/V168I/V174I/V191I/V209I/V214I/Y194H); assay: TEVC of chimera TRAAK/EK-1 M3-C; format: cell-based; settings: Xenopus oocytes
# T7 construct: Trp161 (TRAAK/EK-1 M3-C); expressed in transfected cells; host or cells: Xenopus laevis oocytes, mRNA injected; chimera built by Gibson assembly
# K2P18.1(TRESK) = tested on: K2P18.1(TRESK); parameters: method as in PMID 27641472; settings: cited from earlier work
# [1] = extracellular application, fold activation I/I0 at 0 mV
# T3 sequence (O88454+P97438 fused with the stated changes): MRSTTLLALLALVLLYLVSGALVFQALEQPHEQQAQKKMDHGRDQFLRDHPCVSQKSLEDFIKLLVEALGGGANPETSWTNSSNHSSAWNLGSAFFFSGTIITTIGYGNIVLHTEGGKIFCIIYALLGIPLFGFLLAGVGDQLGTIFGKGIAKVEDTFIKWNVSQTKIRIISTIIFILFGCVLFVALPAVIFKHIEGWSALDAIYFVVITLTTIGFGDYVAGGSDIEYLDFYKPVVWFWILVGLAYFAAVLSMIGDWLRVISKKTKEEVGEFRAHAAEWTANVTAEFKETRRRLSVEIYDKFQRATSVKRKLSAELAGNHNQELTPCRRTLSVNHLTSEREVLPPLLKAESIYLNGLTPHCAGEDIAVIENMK
# T7 sequence (O88454+P97438 fused with the stated changes): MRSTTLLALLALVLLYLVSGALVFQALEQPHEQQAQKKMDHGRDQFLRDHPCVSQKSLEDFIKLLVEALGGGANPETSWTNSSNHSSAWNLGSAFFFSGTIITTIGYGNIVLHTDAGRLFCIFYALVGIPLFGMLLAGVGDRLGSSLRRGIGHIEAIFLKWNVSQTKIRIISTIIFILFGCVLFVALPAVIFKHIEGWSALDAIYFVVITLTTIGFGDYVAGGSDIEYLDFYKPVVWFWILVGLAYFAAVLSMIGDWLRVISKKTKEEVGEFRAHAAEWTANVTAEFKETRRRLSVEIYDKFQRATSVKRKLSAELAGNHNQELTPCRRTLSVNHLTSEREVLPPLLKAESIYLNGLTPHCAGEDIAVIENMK
# Sequence of TREK-1/AAK M2-C (P97438 16-167, one chain of several): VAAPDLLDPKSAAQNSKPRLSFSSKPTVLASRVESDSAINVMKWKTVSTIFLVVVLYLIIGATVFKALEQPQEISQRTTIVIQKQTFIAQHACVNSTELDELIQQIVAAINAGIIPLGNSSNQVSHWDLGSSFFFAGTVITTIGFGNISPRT
# T5 sequence (O88454+P97438 fused with the stated changes): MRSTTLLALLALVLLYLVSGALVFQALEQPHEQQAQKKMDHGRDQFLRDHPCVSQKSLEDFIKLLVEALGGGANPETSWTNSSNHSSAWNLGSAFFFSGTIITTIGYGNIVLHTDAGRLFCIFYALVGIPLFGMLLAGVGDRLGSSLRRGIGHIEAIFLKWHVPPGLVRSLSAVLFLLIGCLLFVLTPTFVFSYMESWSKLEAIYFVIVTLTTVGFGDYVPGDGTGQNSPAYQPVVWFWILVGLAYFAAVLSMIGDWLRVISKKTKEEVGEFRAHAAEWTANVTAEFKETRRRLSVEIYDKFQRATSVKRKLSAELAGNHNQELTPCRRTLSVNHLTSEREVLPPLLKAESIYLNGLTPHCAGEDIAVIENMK
Compound,EC50 (K2P4.1(TRAAK)) [µM],effect on K2P2.1(TREK-1) current (in words) (K2P2.1(TREK-1)),EC50 (K2P2.1(TREK-1); [1]) [µM],also measured
c1ccc2c(c1)Nc1c(-c3nnn[nH]3)cccc1C21CCCCC1 [BL-1249-tricycle],42 ± 9,inhibition between 0.1 and 10 μM followed by activation at higher concentrations,34 ± 6,
c1ccc(Nc2ccccc2-c2nnn[nH]2)cc1 [BL-1249-Ph],> 200,only a small amount of stimulatory effect,> 200,
CC1(C)c2cc(Cl)ccc2N(CCc2nn[nH]n2)c2ccc(Cl)cc21 [ML67-33],,,,EC50 (TREK-1/AAK M2-C): 42 ± 3 µM; EC50 (TRAAK/EK-1 M2-C): 33 ± 1 µM; EC50 (TREK-1/AAK M3-C): 49 ± 22 µM; EC50 (TRAAK/EK-1 M4-C): 31 ± 3 µM; EC50 (TREK-1/AAK M4-C): 42 ± 3 µM; EC50 (TRAAK/EK-1 M3-C): 44 ± 14 µM
NC(=O)c1ccccc1Nc1cccc2c1CCCC2 [BL-1249-amide],> 200,,22 ± 8,
O=C(O)c1ccccc1Nc1cccc2c1CCCC2 [BL-1249-acid],> 200,stronger stimulatory effect on the current than either BL-1249 or BL-1249-amide,,"functional effect on K2P18.1(TRESK) (K2P18.1(TRESK)): inhibitor; loss of potency on K2P2.1(TREK-1) relative to BL-1249-amide (K2P2.1(TREK-1)): ~2 fold; EC50 (K2P2.1(TREK-1); EC50 estimated imposing an upper boundary of 20 (fold activation, I/I0)): 44 ± 10 µM"
